# Key:
# [1] = molecular target: T1, human lipocalin-prostaglandin D2 synthase (human lipocalin-PGDS) (Homo sapiens, UniProt P41222); test: Inhibition of human lipocalin-PGDS enzyme activity; assay type: biochemical; settings: at a concentration of 10 μmol/L; read-out: inhibitory rate, human lipocalin-PGDS
# T1 sequence (P41222 23-190): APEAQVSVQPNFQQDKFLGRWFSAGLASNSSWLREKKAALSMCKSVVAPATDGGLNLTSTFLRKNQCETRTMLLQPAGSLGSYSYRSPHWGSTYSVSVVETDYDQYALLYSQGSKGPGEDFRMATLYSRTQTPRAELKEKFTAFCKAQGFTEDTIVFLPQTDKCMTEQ
# [2] = tested on: mouse model of asthma; test: Airway hyperresponsiveness and eosinophil infiltration in the airway in a mouse model of asthma; assay type: in vivo; settings: 3 mg/kg orally once daily during antigen exposure, OVA-sensitized BALB/c mice
# Description: The mouse model of asthma was prepared as follows. For experimental use, 6-week-old male BALB/c mice were purchased from Charles River Japan (Atsugi, Kanagawa). Equal amounts of a 0.5 mg/mL solution of ovalbumin in physiological saline and a 10 mg/mL suspension of aluminum hydroxide in physiological saline were mixed to give a sensitizing fluid. With well mixing of the sensitization fluid, 0.2 mL of the fluid was intraperitoneally administered to each mouse for sensitization. About 1 week after the initial sensitization, the same procedure was performed for additional sensitization. […]
# The expression of airway hyperresponsiveness (increase of airway reactivity) was evaluated by measuring, under anesthesia, airway reactivity to methacholine (MCh: acetyl-β-methylcholine chloride, Cat. No. A-2251, Sigma-Aldrich) using a respiratory function analyzer [BioSystem XA; version 2.0.2.21 for Windows (registered trademark), preamplifier: MAX2215, body plethysmography box: PLY3011, pressure transducer: Validyne DP45-28, flaw transducer: Validyne DP45-14, Buxco Electronics, Troy, N.Y., USA]. […] As an indicator of airway reactivity, respiratory resistance (RL) values recorded every 5 seconds by the respiratory function analyzer were used. After fixing a mouse to the device and confirming the RL stability, the value after intravenous administration of a physiological saline solution was recorded first. […]
compound,measurement,setting,value
"O=C(O)c1cc(-c2ccco2)nc2ccc3nn(-c4ccccc4)nc3c12 [Compound 133, 7-(furan-2-yl)-2-phenyl-2H-[1,2,3]triazolo[4,5-f]quinoline-9-carboxylic acid]",inhibition at 10 µM,[1],≤ 20%
same,inhibition of the expression of airway hyperresponsiveness,[2],98%
same,inhibition of eosinophil infiltration in the airway,[2]; BAL fluid,55%
